Reference: US10517952B2, “Nucleophile-triggered degradable materials and methods of making and using the same” (GEORGIA TECH RESEARCH CORPORATION, priority 2014, dated 2019)
Values joined by “and” are separate entries in the source; they are usually repeats but may differ in a detail not shown here. Equal entries are not always repeated.

How the values were obtained:
[1] = Residual hydrogel thiol content with fluorogenic OND probe S-6; format: physicochemical; conditions: for Residual thiols in the gel network, average: average of both sets of gels from linkers 7a and 8, % of input macromer thiol content; for Gel Fraction % Residual Thiol: residual thiol in the gel, % of initial thiol content of input macromer; for Sol Fraction % Residual Thiol: thiol in supernatant, % of input thiol, swelled 18 hours at 4° C., pH 7.4 PBS, probe S-6
Method: The thiol content of cured hydrogels was determined by swelling gels in the presence of a small fluorogenic OND S-6, which we have previously described in our lab.
This probe reacts with thiols to produce a fluorescent adduct (FIG. 14A). […] Thus, the concentration of reagent S-6 in solution can be determined by quenching with thiol. Similarly, reagent S-6 can be used to quantify thiol in solution.
Based on cargo diffusion studies (see section X of this document), we expected that probe S-6 should easily permeate the hydrogel network under swelling conditions and react with accessible residual thiols present in the gel network. In order to test this hypothesis, 60 μL hydrogels were freshly prepared from 4-PEG-SH macromer and either linkers 8 or 7a as described in section III of this document. After curing for 20 minutes at room temperature, 3 mL of pH 7.4 0.1M PBS buffer containing 200 μM probe S-6 was added, and the gel was swelled at 4° C. for 18 hours. To account for hydrolytic degradation of our thiol probe during incubation, a sample was prepared with S-6 in buffer alone (lacking 4-PEG-SH and bis-OND linkers). After swelling, the gels were observed under long-wave ultraviolet light to reveal strongly fluorescent gels and weakly fluorescent supernatants (FIG. 15). […] Presumably the fluorescence in the supernatant of samples containing gels is due to soluble fraction of 4-PEG-SH macromer and oligomers not incorporated into the gel network.
In order to calculate the amount of residual thiol present in the soluble fraction, aliquots of the supernatant were removed and fluorescence was measured. Thiol content of the soluble fraction was determined by interpolation using the standard curve shown in FIG. 14 after accounting for fluorescence due to hydrolytic degradation. […] This amount corresponds well with the soluble fraction (soluble fraction=1−gel fraction) determined from swelling experiments (see Table 1 of main text). To determine residual thiol content present in gels, aliquots of the supernatant were quenched with a large excess (10 mM) of N-acetyl cysteine and the increase in fluorescence was measured to determine the amount of unreacted S-6 remaining in the supernatant. Accounting for the amount of probe already consumed by reaction with soluble fraction thiols and by hydrolytic degradation, the amount of residual thiol accessible for post-modification present in the gel was calculated as 13.4±1.4% and 10.8±2.4% of the initial thiol content of input macromer (average of 11.8±3.3 for both sets of gels prepared from linkers 7a and 8).

[2] = Release of entrained cargo from PEG-OND hydrogels; format: physicochemical
Method: Finally, the diffusion of entrained, rather than covalently anchored, cargos of different sizes out of OND hydrogels of differing stabilities was measured. This was done with a small molecule (carboxyfluorescein), a globular protein (fluorescein-labeled bovine serum albumin, BSA), and a 30-nm protein nanoparticle (fluorescein-labeled bacteriophage Qb virus-like particle). The first and last species have no available thiol groups; the second was reacted with N-ethylmaleimide before gelation to cap cysteine-34 and avoid tethering of the protein cargo to the hydrogel network. Hydrogels derived from 4-PEG-SH and 7a, 7b, or 8 were formed in the presence of each cargo; the speed of this reaction made it highly unlikely that OND connectors were addressed by protein amine groups under these conditions.
Three sets of three 60 μL gels were prepared using linkers 7a, 7b, and 8, respectively. The first set contained 1 mM small molecule probe 5/6-carboxyfluorescein, while the second and third sets contained FITC labeled BSA and Qβ virus-like particle, respectively. The gels were allowed to set for 30 minutes at room temperature before dilution with 3 mL of pH 7.4 100 mM phosphate buffered saline. The samples were incubated at 37° C. and the increase in absorbance of the supernatant at 497 nm was monitored. The fraction of released dye was plotted against incubation time. Least-squares kinetic fitting to a first-order rate law was performed for release profiles obtained for carboxyfluorescein cargo, and for the release of BSA from non-degradable PEG-EONB (8) hydrogel (Solver plug-in, Microsoft Excel).

[3] = Degradation of neat PEG-OND hydrogels (inversion test, time-lapse photography); format: physicochemical
Method: Degradation rates of the PEG-OND hydrogels in the absence of swelling buffer varied with temperature and with the identity of OND used to form the gel. […] In comparison, gels formed using 7b were stable for more than 60 hours at 37° C., and approximately 13 hours at 50° C.
Three 500 μL 3.5 wt % hydrogels were formed with bis-ONDs 7a and 7b, and bis-EONB 8, respectively, in 2 mL vials with caps. The sealed vials were incubated in an oil bath maintained at 50° C. The samples were periodically removed from heat and the vials were inverted to determine if the gel was still intact, or whether the sample was a free-flowing liquid, as described in the main text. The gel formed between 4-PEG-SH and bis-EONB 8 in FIG. 9 was removed from heat after 5 days, and stored at room temperature in a sealed vial. The hydrogel is still intact at the time of writing (5 days at 50° C. followed by >1 year at room temperature). The inversion test was routinely used in all stability experiments to verify hydrogel integrity during incubation.
In order to observe reverse gelation upon prolonged heating of neat hydrogels, time-lapse photography was carried out. Briefly, 600 μL hydrogels comprised of 3.5 wt % 4-PEG-SH+bis-OND/EONB (7a, 7b, and 8, respectively) in pH 7.4 100 mM potassium phosphate buffer containing 7% DMSO (v/v) were formed in glass culture tubes and allowed to set for 15 minutes. A glass bead (˜160 mg, stained with blue Sharpie-brand marker to improve visibility) was placed carefully on top of each gel, and a drop of silicon oil was added to prevent evaporation at the surface of the gels. The tubes were sealed with lab parafilm and incubated in a 50° C. oil bath. Photos were collected every 2 minutes for ˜22 hours using Chronolapse software (v.1.0.4) and a Creative Labs webcam. Photographs were compiled in chronological order using iMovie software, with each photo occupying one 0.1 s frame. The resulting video is available as S1 Video, mentioned above.

[4] = Calculation of hydrogel mesh size from equilibrium swelling data; format: physicochemical; conditions: for Average mesh size: average for equilibrium swelled hydrogels from linkers 7a, 7b and 8; for Calculated mesh size: equilibrium-swollen gels
Method: Using the calculated molecular weight between crosslinks, Mc, and the method previously described by Canal and Peppas, the hydrogel mesh size was calculated. First, the root-mean-square end-to-end distance of the polymer chains in the network, (r0^2)^1/2, was calculated as follows: (r0^2)^1/2=lCn^1/2n^1/2 (Equation S10) where l is the average bond length in the polymer (0.146 nm for PEG) and Cn is the characteristic ratio of the polymer (4.0 for PEG). The average number of bonds between crosslinks, n is calculated using the following equation:
[formula] where Mc is the average molecular weight between crosslinks, calculated as described in the previous section, and Mr is the molecular weight of the repeating unit for the PEG macromer (44 g/mol). Finally, the mesh size, ξ, is calculated using the following relationship: ξ=v2,s^−1/3(r0^2)^1/2 (Equation S12) where v2, is the partial volume of polymer in the equilibrium swollen hydrogel, and is calculated using the experimentally determined equilibrium weight swelling ratios.

Row | Structure (SMILES) | Residual thiols in the gel network, average [1] | Gel Fraction % Residual Thiol [1] | Sol Fraction % Residual Thiol [1] | Release of entrained Qβ virus-like particles from the gel ([2]; pH 7.4, 37° C.) | melting point | Inversion test for hydrogel degradation (FIG. 1B) [3] | Long-term gel integrity ([3]; 5 days at 50° C. followed by >1 year at room temperature) | Gel integrity on extended heating (inversion test) ([3]; neat gel, 50° C.) | Gel stability by time-lapse photography, gel supporting a glass bead ([3]; neat gel, heating (50° C.)) | Average mesh size [4] | Calculated mesh size [4] | Fraction of BSA tethered to the network / not freely diffusing from the gel ([2]; FITC-BSA with ˜0.4 accessible thiols per protein) | Release of entrained BSA from the gel compared with more stable matrices ([2]; N-ethylmaleimide-capped FITC-BSA, pH 7.4, 37° C.) | Gel stability by inversion test ([3]; neat gel, no swelling buffer, 4° C.) | Time gel is stable / collapses (inversion test) ([3]; neat gel, no swelling buffer, 37° C.) | Time gel is stable / collapses (inversion test) ([3]; neat gel, no swelling buffer, 50° C.)
1 | COC(=O)C1=C(C(=O)OC)C2(CNC(=O)CCCC(=O)NCC34OC(C(C(=O)OC)=C3C(=O)OC)C3OC34)OC1C1OC12 (centres unmarked) [Linker 8, Tetramethyl 1,1′-((glutaroylbis(azanediyl))bis(methylene))bis(3,8-dioxatricyclo[3.2.1.0^2,4]oct-6-ene-6,7-dicarboxylate)] | 11.8±3.3% | 13.4±1.4% and 12.8 ± 2.2% | 2.1±0.4% | not released | 125 to 130 °C | stable indefinitely | still intact | remained intact | remained intact | 14.0±1.0 nm | 14.0 ± 0.9 nm | – | – | – | – | –
2 | COC(=O)C1=C(C(=O)OC)C2(CNC(=O)CCCC(=O)NCC34C=CC(O3)C(C(=O)OC)=C4C(=O)OC)C=CC1O2 [Linker 7a, Tetramethyl 1,1′-((glutaroylbis(azanediyl))bis(methylene))bis(7-oxabicyclo[2.2.1]hepta-2,5-diene-2,3-dicarboxylate)] | 11.8±3.3% | 10.8±2.4% | 8.1±3.2% | – | 163 to 167 °C | – | – | collapsed | – | 14.0±1.0 nm | 15.2 ± 0.9 nm | ~20% | markedly faster | stable for more than two weeks | 12 h | ≤ 3 h
